Results from PubChem BioAssay (NCI).
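Cultured in 96-well plates, cells were exposed to test compound for 48 hours across five concentrations. GI50 marks 50% less growth. Definition used: TGI = concentration required for complete inhibition of growth.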

What was measured:
Test in all cases: DTP human tumour cell line panel, 48 h
SR leukemia = test system: SR leukemia
HT29 colon = test system: HT29 colon
M14 melanoma = test system: M14 melanoma
RPMI-8226 leukemia = test system: RPMI-8226 leukemia
BT-549 breast = test system: BT-549 breast
IGROV1 ovarian = test system: IGROV1 ovarian
CCRF-CEM leukemia = test system: CCRF-CEM leukemia
MDA-MB-231 breast = test system: MDA-MB-231 breast
SK-MEL-5 melanoma = test system: SK-MEL-5 melanoma
SF-268 CNS = test system: SF-268 CNS
T-47D breast = test system: T-47D breast
SK-OV-3 ovarian = test system: SK-OV-3 ovarian
MOLT-4 leukemia = test system: MOLT-4 leukemia
HL-60(TB) leukemia = test system: HL-60(TB) leukemia
SF-539 CNS = test system: SF-539 CNS
MALME-3M melanoma = test system: MALME-3M melanoma
OVCAR-5 ovarian = test system: OVCAR-5 ovarian
COLO 205 colon = test system: COLO 205 colon
SNB-19 CNS = test system: SNB-19 CNS
DU-145 prostate = test system: DU-145 prostate
HOP-92 NSCLC = test system: HOP-92 NSCLC
TK-10 renal = test system: TK-10 renal
HCT-116 colon = test system: HCT-116 colon
UACC-62 melanoma = test system: UACC-62 melanoma
SK-MEL-28 melanoma = test system: SK-MEL-28 melanoma
UACC-257 melanoma = test system: UACC-257 melanoma
MDA-MB-435 = test system: MDA-MB-435
OVCAR-4 ovarian = test system: OVCAR-4 ovarian
RXF 393 renal = test system: RXF 393 renal
SW-620 colon = test system: SW-620 colon
PC-3 prostate = test system: PC-3 prostate
OVCAR-8 ovarian = test system: OVCAR-8 ovarian
CAKI-1 renal = test system: CAKI-1 renal
SK-MEL-2 melanoma = test system: SK-MEL-2 melanoma
HCT-15 colon = test system: HCT-15 colon
SF-295 CNS = test system: SF-295 CNS
HCC-2998 colon = test system: HCC-2998 colon
SNB-75 CNS = test system: SNB-75 CNS
NCI-H460 lung = test system: NCI-H460 lung
NCI-H522 lung = test system: NCI-H522 lung
A498 renal = test system: A498 renal
HOP-62 NSCLC = test system: HOP-62 NSCLC
K-562 leukemia = test system: K-562 leukemia
HS 578T breast = test system: HS 578T breast
NCI/ADR-RES ovarian = test system: NCI/ADR-RES ovarian
UO-31 renal = test system: UO-31 renal
SN12C renal = test system: SN12C renal
MCF7 breast = test system: MCF7 breast
A549 NSCLC = test system: A549 NSCLC
KM12 colon = test system: KM12 colon
EKVX NSCLC = test system: EKVX NSCLC
U251 CNS = test system: U251 CNS
ACHN renal = test system: ACHN renal
786-0 renal = test system: 786-0 renal
LOX IMVI melanoma = test system: LOX IMVI melanoma
NCI-H226 lung = test system: NCI-H226 lung

In the case of c1n[nH]cc1-c1nc2ccc3[nH]ncc3c2c2c1CCCC2, the GI50 (SR leukemia) is reported as 0.287 µM, the TGI (SR leukemia) is reported as 5.45 µM and the GI50 (HT29 colon) is reported as 1.67 µM. The TGI (HT29 colon) was 10.9 µM, the GI50 (M14 melanoma) was 1.11 µM and the TGI (M14 melanoma) was 3.36 µM. The GI50 (RPMI-8226 leukemia) was 1.51 µM, the TGI (RPMI-8226 leukemia) was 4.94 µM and the GI50 (BT-549 breast) was 1.22 µM. It also gave a TGI (BT-549 breast) of 2.49 µM, a GI50 (IGROV1 ovarian) of 1.35 µM and a TGI (IGROV1 ovarian) of 8.15 µM. It also gave a GI50 (CCRF-CEM leukemia) of 2.42 µM, a TGI (CCRF-CEM leukemia) greater than 100 µM and a GI50 (MDA-MB-231 breast) of 1.96 µM. It also gave a TGI (MDA-MB-231 breast) of 12 µM, a GI50 (SK-MEL-5 melanoma) of 1.28 µM and a TGI (SK-MEL-5 melanoma) of 3.22 µM. The GI50 (SF-268 CNS) was 1.95 µM, the TGI (SF-268 CNS) was 4.63 µM and the GI50 (T-47D breast) was 2.21 µM. It also gave a TGI (T-47D breast) of 8.18 µM, a GI50 (SK-OV-3 ovarian) of 0.68 µM and a TGI (SK-OV-3 ovarian) of 11.6 µM. The GI50 (MOLT-4 leukemia) was 1.99 µM, the TGI (MOLT-4 leukemia) was 7.88 µM and the GI50 (HL-60(TB) leukemia) was 1.49 µM. It also gave a TGI (HL-60(TB) leukemia) of 5.59 µM, a GI50 (SF-539 CNS) of 1.38 µM and a TGI (SF-539 CNS) of 3.09 µM. For the same molecule, the GI50 (MALME-3M melanoma) was 1.56 µM, the TGI (MALME-3M melanoma) was 4.76 µM and the GI50 (OVCAR-5 ovarian) was 2.71 µM. It also gave a TGI (OVCAR-5 ovarian) of 17.9 µM, a GI50 (COLO 205 colon) of 1.31 µM and a TGI (COLO 205 colon) of 4.47 µM. It also gave a GI50 (SNB-19 CNS) of 2.78 µM, a TGI (SNB-19 CNS) of 9.85 µM and a GI50 (DU-145 prostate) of 1.71 µM. It also gave a TGI (DU-145 prostate) of 11.6 µM, a GI50 (HOP-92 NSCLC) of 2.24 µM and a TGI (HOP-92 NSCLC) of 6.31 µM. For the same molecule, the GI50 (TK-10 renal) was 0.766 µM, the TGI (TK-10 renal) was 8.2 µM and the GI50 (HCT-116 colon) was 0.635 µM. It also gave a TGI (HCT-116 colon) of 7.92 µM, a GI50 (UACC-62 melanoma) of 1.06 µM and a TGI (UACC-62 melanoma) of 3.25 µM. For the same molecule, the GI50 (SK-MEL-28 melanoma) was 1.59 µM, the TGI (SK-MEL-28 melanoma) was 4.51 µM and the GI50 (UACC-257 melanoma) was 1.86 µM. It also gave a TGI (UACC-257 melanoma) of 6.64 µM, a GI50 (MDA-MB-435) of 1.4 µM and a TGI (MDA-MB-435) of 4.38 µM. The GI50 (OVCAR-4 ovarian) was 2.35 µM, the TGI (OVCAR-4 ovarian) was 7.93 µM and the GI50 (RXF 393 renal) was 1.17 µM. The TGI (RXF 393 renal) was 2.77 µM, the GI50 (SW-620 colon) was 0.924 µM and the TGI (SW-620 colon) was 6.54 µM. The GI50 (PC-3 prostate) was 2.37 µM, the TGI (PC-3 prostate) was 11.6 µM and the GI50 (OVCAR-8 ovarian) was 1.64 µM. For the same molecule, the TGI (OVCAR-8 ovarian) was 4.38 µM, the GI50 (CAKI-1 renal) was 0.511 µM and the TGI (CAKI-1 renal) was 10.4 µM. The GI50 (SK-MEL-2 melanoma) was 1.26 µM, the TGI (SK-MEL-2 melanoma) was 3.12 µM and the GI50 (HCT-15 colon) was 1.38 µM. It also gave a TGI (HCT-15 colon) of 14 µM, a GI50 (SF-295 CNS) of 2.11 µM and a TGI (SF-295 CNS) of 8.49 µM. For the same molecule, the GI50 (HCC-2998 colon) was 1.64 µM, the TGI (HCC-2998 colon) was 7.31 µM and the GI50 (SNB-75 CNS) was 1.31 µM. It also gave a TGI (SNB-75 CNS) of 2.88 µM, a GI50 (NCI-H460 lung) of 0.783 µM and a TGI (NCI-H460 lung) of 4.85 µM. The GI50 (NCI-H522 lung) was 0.835 µM, the TGI (NCI-H522 lung) was 2.77 µM and the GI50 (A498 renal) was 0.405 µM. It also gave a TGI (A498 renal) of 1.92 µM, a GI50 (HOP-62 NSCLC) of 1.75 µM and a TGI (HOP-62 NSCLC) of 7.68 µM. It also gave a GI50 (K-562 leukemia) of 3.01 µM, a TGI (K-562 leukemia) greater than 100 µM and a GI50 (HS 578T breast) of 0.914 µM. For the same molecule, the TGI (HS 578T breast) was 4.02 µM, the GI50 (NCI/ADR-RES ovarian) was 2.1 µM and the TGI (NCI/ADR-RES ovarian) was 6.05 µM. The GI50 (UO-31 renal) was 1.54 µM, the TGI (UO-31 renal) was 7.65 µM and the GI50 (SN12C renal) was 1.84 µM. For the same molecule, the TGI (SN12C renal) was 7.54 µM, the GI50 (MCF7 breast) was 2.42 µM and the TGI (MCF7 breast) was 11.7 µM. The GI50 (A549 NSCLC) was 2.01 µM, the TGI (A549 NSCLC) was 12.3 µM and the GI50 (KM12 colon) was 2.91 µM. For the same molecule, the TGI (KM12 colon) was 8.9 µM, the GI50 (EKVX NSCLC) was 0.887 µM and the TGI (EKVX NSCLC) was 3.33 µM. For the same molecule, the GI50 (U251 CNS) was 2.06 µM, the TGI (U251 CNS) was 12.1 µM and the GI50 (ACHN renal) was 0.56 µM. It also gave a TGI (ACHN renal) of 10.3 µM, a GI50 (786-0 renal) of 1.41 µM and a TGI (786-0 renal) of 2.72 µM. For the same molecule, the GI50 (LOX IMVI melanoma) was 1.15 µM, the TGI (LOX IMVI melanoma) was 2.91 µM and the GI50 (NCI-H226 lung) was 1.28 µM. The TGI (NCI-H226 lung) was 3.65 µM.
